Data on three compounds can be found in US20100056601A1, “Control agent containing N-Substituted indole derivative for acarian parasitic on animal” (Nippon Kayaku Kabushiki Kaisha, priority 2004, published 2010).

Where two headings read alike, the source gives them in different places.

The test system of series [1] is two-spotted spider mite (Tetranychus urticae). As to the kind of experiment: Comparative test: insecticidal effect on two-spotted spider mite, leaf immersion (Test Example 5). In kind it is in vivo. The following applies: for insecticidal activity against the two-spotted spider mites (in words): 200 ppm, 2 days after immersion; for mortality at 200 ppm: Tetranychus urticae, in Phaseolus vulgaris, 48 h, read-out: Mortality after 2 days (%). As to the method:
Twenty adult female two-spotted spider mites were released on the leaves of a potted kidney bean plant. One day after the release, the kidney bean leaves were immersed for several seconds in a chemical solution obtained by diluting a 20% emulsion of each compound with tap water to a concentration of 200 ppm. After air-dryness, the leaves were placed in a room thermostated at 25° C. Two days after the immersion, whether the adult two-spotted spider mites on the leaves were alive or dead were judged and the dead and alive were counted. The mortality was calculated.

Another series has as its system std:ddy strain male mice. Nature of the series: Toxicity to mouse, administration into the stomach (Test Example 3). The following applies: into the stomach in olive oil. In kind it is in vivo. As to the method:
The compound listed in Table 1 or Fipronil was dissolved in olive oil to a predetermined concentration, and the resulting solution was directly administered into the stomachs of std:ddy strain male mice by the use of a probe. The dose was 30 mg/kg or 100 mg/kg. Whether the mice were alive or dead was observed 3 hours, 1 day, 7 days and 14 days after the administration.

In series [2] the test system is hatched larvae of Haemaphysalis longicornis. As to the kind of experiment: In vivo control effect on ticks on rabbit ears, spot-on treatment (Test Example 2). Here is the method: About 40 hatched larvae of Haemaphysalis longicornis were inoculated on the ears of a rabbit by the use of a cloth bag, made parasitic on the rabbit and allowed to suck the blood. After 24 hours, the cloth bag was taken off and ticks sucking the blood were counted. […] The left ear was not treated. Three hours, 1 day and 2 days after the spot-on treatment, the living ticks on each of the right and left ears were counted. As a control animal, there was used a rabbit whose right ear had been treated with only the base ingredient for preparation for spot-on treatment and whose left ear had been not treated.

The test system is the same in series [3]. Nature of the series: In vitro control effect on acarians, treated Pasteur's pipette test (Test Example 1). Type of series: in vivo. As to the method:
Neoglamine was added to the emulsion of Example 1 in an amount of 0.01% and the resulting mixture was diluted with tap water to each concentration shown in Table 2. After a commercial 0.5×15 cm Pasteur's pipette was immersed in the dilution for 30 seconds, it was vertically stood on cotton and air-dried. The head of the air-dried Pasteur's pipette was plugged with cotton, and 10 hatched larvae of Haemaphysalis longicornis were sucked from the cotton-plugged end side by the use of a suction pump and then the other end was sealed with putty. After the suction, the pipette was allowed to stand in a desiccator containing a saturated aqueous disodium hydrogenphosphate solution and maintained at 23° C. Observation was carried out after 2 days and after 4 days. Fipronil was used as a positive control.

For a further series, the system named is cat. Nature of the series: Administration to a cat, spot-on dropping, clinical symptom (Test Example 4). The following applies: for Clinical symptom: 0.5 ml spot-on.
The mark [4] stands for this setting: left ear (not treated), right ear spot-on 0.1 ml of 20% solution.
Where [5] appears, read: right ear (treated), spot-on 0.1 ml of 20% solution.
The mark [6] stands for this setting: Haemaphysalis longicornis, 48 h, read-out: Mortality after 2 days.
The mark [7] stands for this setting: Haemaphysalis longicornis, 96 h, read-out: Mortality after 4 days.

Description for cat: After the dropping, the clinical symptom of the cat was observed.

Consider `FC(Cl)(Cl)Sc1cn(-c2c(Cl)cc(C(F)(F)F)cc2Cl)c2ccccc12` [Compound 17, 1-(2,6-dichloro-4-trifluoromethylphenyl)-3-(dichlorofluoromethylthio)indole], for which, in series [1], the “insecticidal activity against the two-spotted spider mites (in words)” value is “no insecticidal activity” and the mortality at 200 ppm worked out at 0%. For the same compound, in the series on std:ddy strain male mice (30 mg/kg), the “Cumulative mortality after 3 hours” value was 0/5, the “Cumulative mortality after 1 day” value is given as 0/5, the “Cumulative mortality after 7 days” value is 0/5 and the “Cumulative mortality after 14 days” value is 0/5. In addition, in the series on std:ddy strain male mice (100 mg/kg), the “Cumulative mortality after 3 hours” value is given as 0/5, the “Cumulative mortality after 1 day” value is reported as 0/5, the “Cumulative mortality after 7 days” value is on record as 0/5 and the “Cumulative mortality after 14 days” value was 0/5. Besides, the “extermination of ticks on the treated right ear (in words)” value in series [2] (in 3 hours after the treatment) is given as “quickly exterminated ticks on the right ear”. For the same compound, the “extermination of ticks on the untreated left ear (in words)” value in series [2] (in 1 day after the treatment) is reported as “also exterminated ticks on the left ear”. For the same compound, in series [2] (left ear (not treated), baseline before spot-on on right ear), the “Number of living ticks, before dropping” value was determined as 15. For the same compound, in series [2] (setting [4]), the “Number of living ticks, after 3 hours” value was determined as 15; the “Number of living ticks, after 1 day” value worked out at 0; the “Number of living ticks, after 2 days” value is given as 0. Moreover, the “Number of living ticks, before dropping” value in series [2] (right ear (treated ear), baseline before spot-on of 0.1 ml 20% solution) is recorded as 15. Also, in series [2] (setting [5]), the “Number of living ticks, after 3 hours” value was 3; the “Number of living ticks, after 1 day” value came to 1; the “Number of living ticks, after 2 days” value is recorded as 0. Besides, in series [3] (setting [6]), the mortality at 0.1 ppm was 0%, the mortality at 1 ppm stood at 20% and the mortality at 10 ppm is 100%. Further, in series [3] (setting [7]), the mortality at 0.1 ppm was determined as 0%, the mortality at 1 ppm came out at 80% and the mortality at 10 ppm stood at 100%. In addition, the Clinical symptom entry in the series on cat (cat, dropping concentration 10%) is listed as “No sign was recognized”. The Clinical symptom result in the series with cat (cat, dropping concentration 20%) is “No sign was recognized”. In the series on cat (cat, dropping concentration 30%), the Clinical symptom result was “No sign was recognized”. In addition, the “abnormal sign due to the spot-on dropping” value with cat (cat, 10, 20 or 30% liquid drops) is “no abnormal sign”. In addition, in the series on cat (cat, spot-on 10, 20 or 30% liquid drops), the “toxicity to cat (in words)” value is given as “only low toxicity”.

As for `FC(F)(F)Sc1cn(-c2c(Cl)cc(C(F)(F)F)cc2Cl)c2ccccc12` [Compound 25, 1-(2,6-dichloro-4-trifluoromethylphenyl)-3-(trifluoromethylthio)indole], in series [1], the “insecticidal activity against the two-spotted spider mites (in words)” value was “no insecticidal activity” and the mortality at 200 ppm was 0%. Moreover, in the series on std:ddy strain male mice (30 mg/kg), the “Cumulative mortality after 3 hours” value is listed as 0/5, the “Cumulative mortality after 1 day” value was 0/5, the “Cumulative mortality after 7 days” value is 0/5 and the “Cumulative mortality after 14 days” value is on record as 0/5. For the same compound, in the series with std:ddy strain male mice (100 mg/kg), the “Cumulative mortality after 3 hours” value is reported as 0/5, the “Cumulative mortality after 1 day” value is recorded as 0/5, the “Cumulative mortality after 7 days” value is 0/5 and the “Cumulative mortality after 14 days” value is 0/5. In series [3] (setting [6]), the mortality at 0.01 ppm was found to be 30%, the mortality at 0.1 ppm is 100%, the mortality at 1 ppm is 100% and the mortality at 10 ppm worked out at 100%. In series [3] (setting [7]), the mortality at 0.01 ppm is 60%, the mortality at 1 ppm was determined as 100% and the mortality at 10 ppm came out at 100%.

Consider `N#Cc1nn(-c2c(Cl)cc(C(F)(F)F)cc2Cl)c(N)c1[S+]([O-])C(F)(F)F` (centres unmarked) [Fipronil, 5-amino-1-(2,6-dichloro-4-(trifluoromethyl)phenyl)-4-((trifluoromethyl)sulfinyl)-1H-pyrazole-3-carbonitrile, reference compound], for which the “Cumulative mortality after 3 hours” value is 0/5 in the series with std:ddy strain male mice (30 mg/kg) and 1/5 in the series on std:ddy strain male mice (100 mg/kg). For the same compound, the results for the “Cumulative mortality after 1 day” value with std:ddy strain male mice (30 mg/kg) and with std:ddy strain male mice (100 mg/kg) were 1/5 and 5/5, respectively. For the same compound, the figures for the “Cumulative mortality after 7 days” value in the series with std:ddy strain male mice (30 mg/kg) and with std:ddy strain male mice (100 mg/kg) were 1/5 and 5/5, respectively. Also, the “Cumulative mortality after 14 days” value in the series with std:ddy strain male mice (30 mg/kg) is reported as 1/5; in the series with std:ddy strain male mice (100 mg/kg), 5/5. For the same compound, the mortality at 0.1 ppm in series [3] (48 h, 0.1 ppm, Haemaphysalis longicornis larvae, 23° C., read-out: Mortality after 2 days) worked out at 30%; in series [3] (96 h, 0.1 ppm, Haemaphysalis longicornis larvae, 23° C., read-out: Mortality after 4 days) it was 60%. The mortality at 1 ppm in series [3] (48 h, 1 ppm, Haemaphysalis longicornis larvae, 23° C., read-out: Mortality after 2 days) is 100%; in series [3] (96 h, 1 ppm, Haemaphysalis longicornis larvae, 23° C., read-out: Mortality after 4 days), 100%. Besides, the mortality at 10 ppm in series [3] (48 h, 10 ppm, Haemaphysalis longicornis larvae, 23° C., read-out: Mortality after 2 days) was 100%; in series [3] (96 h, 10 ppm, Haemaphysalis longicornis larvae, 23° C., read-out: Mortality after 4 days) it was 100%.
